In brackets after ≈: the same amount, converted by molar mass.
Key:
[1] = tested on: Staphylococcus aureus FDA 209P JC-1; assay: Antibacterial activity (MIC), S. aureus FDA 209P JC-1; assay type: cell-based; settings: FDA209P; Staphylococcus aureus FDA 209P JC-1, Gram +; read-out: Minimum inhibitory concentration (MIC)
Procedure, shortened: (§1)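 Dissolve compound in 0.1 N aqueous sodium hydroxide or sterilized distilled water to 5000 μg/ml; dilute to a 1000 μg/ml standard; measure MIC as prescribed by the Japan Society of Chemotherapy.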

[2] = tested on: Staphylococcus aureus IID 803; assay: Antibacterial activity (MIC), S. aureus IID 803; assay type: cell-based; settings: IID803; Staphylococcus aureus IID 803, Gram +; read-out: Minimum inhibitory concentration (MIC)
Procedure, shortened: as §1

[3] = tested on: Staphylococcus epidermidis IAM-1296; assay: Antibacterial activity (MIC), S. epidermidis IAM-1296; assay type: cell-based; settings: Staphylococcus epidermidis, IAM1296, Staphylococcus epidermidis IAM-1296, Gram +; read-out: Minimum inhibitory concentration (MIC)
Procedure, shortened: as §1

[4] = tested on: Streptococcus faecalis IID 682; assay: Antibacterial activity (MIC), Streptococcus faecalis IID 682; assay type: cell-based; settings: Enterococcus faecalis, IID682, Streptococcus faecalis IID 682, Gram +; read-out: Minimum inhibitory concentration (MIC)
Procedure, shortened: as §1

[5] = tested on: Bacillus subtilis ATCC 6633; assay: Antibacterial activity (MIC), Bacillus subtilis ATCC 6633; assay type: cell-based; settings: Bacillus subtilis, ATCC6633, Bacillus subtilis ATCC 6633, Gram +; read-out: Minimum inhibitory concentration (MIC)
Procedure, shortened: as §1

[6] = tested on: Micrococcus luteus ATCC 9341; assay: Antibacterial activity (MIC), Micrococcus luteus ATCC 9341; assay type: cell-based; settings: ATCC9341; Micrococcus luteus ATCC 9341, Gram +; read-out: Minimum inhibitory concentration (MIC)
Procedure, shortened: as §1

[7] = tested on: Escherichia coli NIHJ JC-2; assay: Antibacterial activity (MIC), E. coli NIHJ JC-2; assay type: cell-based; settings: NIHJJC2; Escherichia coli NIHJ JC-2, Gram -; read-out: Minimum inhibitory concentration (MIC)
Procedure, shortened: as §1

Escherichia coli KC-14 = assay: Antibacterial activity (MIC), E. coli KC-14; assay type: cell-based; settings: KC14; Escherichia coli KC-14, Gram -; read-out: Minimum inhibitory concentration (MIC)
Procedure, shortened: as §1

[8] = tested on: Klebsiella pneumoniae PCI-602; assay: Antibacterial activity (MIC), Klebsiella pneumoniae PCI-602; assay type: cell-based; settings: PCI602; Klebsiella pneumoniae PCI-602, Gram -; read-out: Minimum inhibitory concentration (MIC)
Procedure, shortened: as §1

[9] = tested on: Salmonella typhimurium IID 971; assay: Antibacterial activity (MIC), Salmonella typhimurium IID 971; assay type: cell-based; settings: Salmonella enterica; Salmonella typhimurium IID 971, Gram -; read-out: Minimum inhibitory concentration (MIC)
Procedure, shortened: as §1

Shigella sonnei EW-33 = assay: Antibacterial activity (MIC), Shigella sonnei EW-33; assay type: cell-based; settings: Shigella sonnei, EW33, Shigella sonnei EW-33, Gram -; read-out: Minimum inhibitory concentration (MIC)
Procedure, shortened: as §1

[10] = tested on: Serratia marcescens IAM 1184; assay: Antibacterial activity (MIC), Serratia marcescens IAM 1184; assay type: cell-based; settings: Serratia marcescens, IAM1184, Serratia marcescens IAM 1184, Gram -; read-out: Minimum inhibitory concentration (MIC)
Procedure, shortened: as §1

[11] = tested on: Pseudomonas aeruginosa IFO 3445; assay: Antibacterial activity (MIC), P. aeruginosa IFO 3445; assay type: cell-based; settings: Pseudomonas aeruginosa, IFO3445, Pseudomonas aeruginosa IFO 3445, Gram -; read-out: Minimum inhibitory concentration (MIC)
Procedure, shortened: as §1

[12] = tested on: Pseudomonas aeruginosa NCTC 10490; assay: Antibacterial activity (MIC), P. aeruginosa NCTC 10490; assay type: cell-based; settings: Pseudomonas aeruginosa, NCTC10490, Pseudomonas aeruginosa NCTC 10490, Gram -; read-out: Minimum inhibitory concentration (MIC)
Procedure, shortened: as §1

[13] = tested on: Pseudomonas aeruginosa E-2; assay: Antibacterial activity (MIC), P. aeruginosa E-2; assay type: cell-based; settings: E2; Pseudomonas aeruginosa E-2, Gram -; read-out: Minimum inhibitory concentration (MIC)
Procedure, shortened: as §1

[14] = tested on: Morganella morganii IFO 3848; assay: Antibacterial activity (MIC), Morganella morganii IFO 3848; assay type: cell-based; settings: Morganella morganii, IFO3848, Morganella morganii IFO 3848, Gram -; read-out: Minimum inhibitory concentration (MIC)
Procedure, shortened: as §1

Proteus vulgaris OX-19 = assay: Antibacterial activity (MIC), Proteus vulgaris OX-19; assay type: cell-based; settings: OX19; Proteus vulgaris OX-19, Gram -; read-out: Minimum inhibitory concentration (MIC)
Procedure, shortened: as §1

[15] = tested on: Proteus mirabilis IFO 3849; assay: Antibacterial activity (MIC), Proteus mirabilis IFO 3849; assay type: cell-based; settings: IFO3849; Proteus mirabilis IFO 3849, Gram -; read-out: Minimum inhibitory concentration (MIC)
Procedure, shortened: as §1

[16] = tested on: Enterobacter aerogenes ATCC 13048; assay: Antibacterial activity (MIC), Enterobacter aerogenes ATCC 13048; assay type: cell-based; settings: Klebsiella aerogenes, ATCC13048; Enterobacter aerogenes ATCC 13048, Gram -; read-out: Minimum inhibitory concentration (MIC)
Procedure, shortened: as §1

Enterobacter cloacae 963 = assay: Antibacterial activity (MIC), Enterobacter cloacae 963; assay type: cell-based; settings: Enterobacter cloacae, 963, Enterobacter cloacae 963, Gram -; read-out: Minimum inhibitory concentration (MIC)
Procedure, shortened: as §1

[17] = tested on: Citrobacter freundii NIHJ 10018-68; assay: Antibacterial activity (MIC), Citrobacter freundii NIHJ 10018-68; assay type: cell-based; settings: Citrobacter freundii, NIHJ10018, Citrobacter freundii NIHJ 10018-68, Gram -; read-out: Minimum inhibitory concentration (MIC)
Procedure, shortened: as §1

[18] = tested on: Acinetobacter calcoaceticus AC 54; assay: Antibacterial activity (MIC), Acinetobacter calcoaceticus AC 54; assay type: cell-based; settings: AC54; Acinetobacter calcoaceticus AC 54, Gram -; read-out: Minimum inhibitory concentration (MIC)
Procedure, shortened: as §1

[19] = tested on: Staphylococcus aureus IID 803; assay: Effect on treatment of general infectious disease, S. aureus IID 803 (Experiment 4); assay type: in vivo, ddY male mice infected with Staphylococcus aureus; settings: IID803, 168 h, oral, 1 h after i.p. infection, 2.1×10^7 CFU/mouse, survival after one week
Procedure: (§2) The test microorganisms were subjected to standing culture in Trypto-Soya Agar "Nissui" (made by Nissui Seiyaku K.K., Japan) at 37° C. for 16 to 18 hours. The culture was then diluted with PBS (Dulbecco's phosphate buffered saline) and mixed with an equivalent amount of 10% (w/v) Mucin (BACTO MUCIN BACTERIOLOGICAL, made by Difco Co.) to prepare a microorganism solution. The thus prepared microorganism solution (0.5 ml each) was intraperitoneally inoculated to ddY male mice (5 weeks age, weighing 25-28 g, 5 mice in each group), to infect the animals. One hour after the infection, the compound (A) or (J) of the present invention or the known compound (X) suspended in 1% (w/v) aqueous gum arabic or the known compound (Y) dissolved in sterilized distilled water was orally adiministered to mice.
(§3) The mice were daily observed for one week, and from the survival number of mice after one week, the 50% effective dose (ED50) was calculated by Weil method.
Staphylococcus aureus IID 803 (2.1×10^7 CFU/mouse)
(§4) The procedure of Experiment 3 was repeated except that ddY male mice weighing 24 to 28 g were employed.

[20] = tested on: Pseudomonas aeruginosa E-2; assay: Effect on treatment of general infectious disease, P. aeruginosa E-2 (Experiment 4); assay type: in vivo, ddY male mice infected with Pseudomonas aeruginosa; settings: E2, 168 h, oral, 1 h after i.p. infection, 3.4×10^4 CFU/mouse, survival after one week
Procedure: as §2, §3
Pseudomonas aeruginosa E-2 (3.4×10^4 CFU/mouse)
as §4

[21] = Acute toxicity (LD50) (Experiment 6); settings: mouse, in vivo; oral, mice fasted 18 hours, observed for a week
Procedure: (§5) The compound (O) or (P) of the present invention was suspended in sterilized distilled water to prepare a suspension. The suspension was orally adminstered to ddY male mice (5 weeks age, weighing 20 to 25 g, 5 mice in each group), which had been fasted for 18 hours.

infection = assay: Protective effects against infection (Experiments 3 and 4); assay type: in vivo, ddY male mice; settings: result in words
Procedure: as §2, §3, §4

[22] = Low toxicity (Experiments 5 and 6); assay type: in vivo, ddY male mice; settings: result in words
Procedure: The compound (A) or (J) of the present invention was suspended in 1% (w/v) aqueous gum arabic to prepare a suspension in concentration of 100 mg/ml. The suspension was orally administered to ddY male mice (5 weeks age, weighing 20 to 25 g, 5 mice in each group), which had been fasted for 18 hours, at a rate of 2000 mg/kg body weight of the compound (A) or (J).
as §5

Compound: CC1CN(c2c(F)cc3c(=O)c(C(=O)O)c4scc5n4c3c2N(C)C5)CCN1C (stereo not drawn) [Compound (O), 9,1-(Methylimino)methano-7-fluoro-8-(3,4-dimethyl-1-piperazinyl)-5-oxo-5H-thiazolo[3,2-a]-quinoline-4-carboxylic acid]
- MIC [1]: 0.025 µg/mL (≈ 0.06 µM)
- MIC [2]: 0.025 µg/mL (≈ 0.06 µM)
- MIC [3]: 0.05 µg/mL (≈ 0.12 µM)
- MIC [4]: 0.1 µg/mL (≈ 0.24 µM)
- MIC [5]: 0.0125 µg/mL (≈ 0.03 µM)
- MIC [6]: 0.39 µg/mL (≈ 0.936 µM)
- MIC [7]: 0.05 µg/mL (≈ 0.12 µM)
- MIC (Escherichia coli KC-14): 0.05 µg/mL (≈ 0.12 µM)
- MIC [8]: 0.006 µg/mL (≈ 0.0144 µM)
- MIC [9]: 0.2 µg/mL (≈ 0.48 µM)
- MIC (Shigella sonnei EW-33): 0.05 µg/mL (≈ 0.12 µM)
- MIC [10]: 0.39 µg/mL (≈ 0.936 µM)
- MIC [11]: 1.56 µg/mL (≈ 3.75 µM)
- MIC [12]: 0.78 µg/mL (≈ 1.87 µM)
- MIC [13]: 0.78 µg/mL (≈ 1.87 µM)
- MIC [14]: 0.2 µg/mL (≈ 0.48 µM)
- MIC (Proteus vulgaris OX-19): 0.025 µg/mL (≈ 0.06 µM)
- MIC [15]: 0.39 µg/mL (≈ 0.936 µM)
- MIC [16]: 0.1 µg/mL (≈ 0.24 µM)
- MIC (Enterobacter cloacae 963): 0.1 µg/mL (≈ 0.24 µM)
- MIC [17]: 0.39 µg/mL (≈ 0.936 µM)
- MIC [18]: 0.025 µg/mL (≈ 0.06 µM)
- ED50 [19]: 2.8 mg/kg
- ED50 [20]: 9.4 mg/kg
- LD50 at 168 h [21]: 1410 mg/kg
- protective effects against infection (infection): excellent protective effects against infection
- toxicity [22]: low toxicity
